Measurements taken from US20160291027A1, “METHODS FOR […] ABILITY OF A Z[…] COMPOUND TO TREAT CANCER” (Eisai R&D Management Co., Ltd., priority 2007, published 2016).

Tested on: cell lines which carried a BRAF V600E mutation
Test: Cell growth assay (CellTiter-Glo or methylene blue) in solid cancer cell lines
Format: cell-based
Details: 96 hours, 0.3-10000 nM
Procedure: In a separate experiment, Compounds 091 and 106 were tested in solid cancer cell lines from different tissue types (shown in FIG. 3B for 21 cell lines for compound 091 and 19 cell lines for compound 106). All cell lines were introduced into 96-well plates and grown in the absence or continuous presence of 0.3-10000 nM of either compound 091 or compound 106 for 96 hours. Cell growth was assessed using a CellTiter-Glo® Luminescent Cell Viability Assay (Promega) or a methylene blue assay. IC50 values were determined as the concentration of a substance which inhibits cell growth by 50% compared to untreated cell populations.

## CNc1cc(O)c2c(c1)/C=C/C[C@H](O)[C@H](O)C(=O)/C=C\[C@@H](C)[C@H](C)OC2=O [Compound 091]
  Sensitivity of BRAF V600E cell lines (concentration range): low-nM or sub-μM concentration range
